Several values for one entry are separate records, joined by “and”; a condition that tells them apart may be missing. Equal entries are not always repeated. Marks after values point to notes of the source that are not given here.
Assays:
[1] = biological target: GluN1b–GluN2B ATD heterodimer (Xenopus laevis; Rattus norvegicus, UniProt A0A1L8F5J9+Q00960, E186G/INS190SKKRNYENLDQLSYDNKRGPK/N348D/N350Q/N61Q); experiment: ITC, ifenprodil titrated into isolated GluN1b–GluN2B ATD used for crystallization; type: binding; details: pH 7.6
Chain of UniProt Q00960 (Q00960 32-394 N348D, other chains not shown): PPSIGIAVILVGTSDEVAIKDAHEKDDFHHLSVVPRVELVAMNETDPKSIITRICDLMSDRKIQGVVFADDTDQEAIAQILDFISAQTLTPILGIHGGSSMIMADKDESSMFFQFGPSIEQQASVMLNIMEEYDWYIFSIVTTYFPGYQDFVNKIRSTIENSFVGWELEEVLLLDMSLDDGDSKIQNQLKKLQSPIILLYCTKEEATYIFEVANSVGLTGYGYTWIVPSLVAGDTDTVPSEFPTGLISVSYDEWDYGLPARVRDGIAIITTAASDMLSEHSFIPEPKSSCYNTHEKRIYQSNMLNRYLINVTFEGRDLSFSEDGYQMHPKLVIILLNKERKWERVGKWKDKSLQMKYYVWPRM

[2] = biological target: GluN1b–GluN2B ATD heterodimer (Xenopus laevis; Rattus norvegicus, UniProt A0A1L8F5J9+Q00960, E186G/INS190[…]/N348D/N350Q/N61Q); experiment: as above; type: binding; details: pH 7.6
[3] = biological target: T1, GluN1-4a/GluN2B (WT) NMDA receptor (Rattus norvegicus, UniProt P35439+Q00960); experiment: TEVC concentration–response in Xenopus oocytes, wild type GluN1-4a/GluN2B; type: cell-based; details: for Ifenprodil DR, response at 0.01: ifenprodil at 0.01; for Ifenprodil DR, response at 0.01 / Ifenprodil DR, response at 0.03 / Ifenprodil DR, response at 0.1: relative to 100/100 G/G; for Ifenprodil DR, response at 0.03: ifenprodil at 0.03; for Ifenprodil DR, response at 0.1: ifenprodil at 0.1
T1 construct: compared to that observed for full-length receptors in TEVC recordings; expressed in transfected cells; host or cells: Xenopus laevis oocytes, cRNA injection
T1 sequence (Q00960 27-1482, other chains not shown): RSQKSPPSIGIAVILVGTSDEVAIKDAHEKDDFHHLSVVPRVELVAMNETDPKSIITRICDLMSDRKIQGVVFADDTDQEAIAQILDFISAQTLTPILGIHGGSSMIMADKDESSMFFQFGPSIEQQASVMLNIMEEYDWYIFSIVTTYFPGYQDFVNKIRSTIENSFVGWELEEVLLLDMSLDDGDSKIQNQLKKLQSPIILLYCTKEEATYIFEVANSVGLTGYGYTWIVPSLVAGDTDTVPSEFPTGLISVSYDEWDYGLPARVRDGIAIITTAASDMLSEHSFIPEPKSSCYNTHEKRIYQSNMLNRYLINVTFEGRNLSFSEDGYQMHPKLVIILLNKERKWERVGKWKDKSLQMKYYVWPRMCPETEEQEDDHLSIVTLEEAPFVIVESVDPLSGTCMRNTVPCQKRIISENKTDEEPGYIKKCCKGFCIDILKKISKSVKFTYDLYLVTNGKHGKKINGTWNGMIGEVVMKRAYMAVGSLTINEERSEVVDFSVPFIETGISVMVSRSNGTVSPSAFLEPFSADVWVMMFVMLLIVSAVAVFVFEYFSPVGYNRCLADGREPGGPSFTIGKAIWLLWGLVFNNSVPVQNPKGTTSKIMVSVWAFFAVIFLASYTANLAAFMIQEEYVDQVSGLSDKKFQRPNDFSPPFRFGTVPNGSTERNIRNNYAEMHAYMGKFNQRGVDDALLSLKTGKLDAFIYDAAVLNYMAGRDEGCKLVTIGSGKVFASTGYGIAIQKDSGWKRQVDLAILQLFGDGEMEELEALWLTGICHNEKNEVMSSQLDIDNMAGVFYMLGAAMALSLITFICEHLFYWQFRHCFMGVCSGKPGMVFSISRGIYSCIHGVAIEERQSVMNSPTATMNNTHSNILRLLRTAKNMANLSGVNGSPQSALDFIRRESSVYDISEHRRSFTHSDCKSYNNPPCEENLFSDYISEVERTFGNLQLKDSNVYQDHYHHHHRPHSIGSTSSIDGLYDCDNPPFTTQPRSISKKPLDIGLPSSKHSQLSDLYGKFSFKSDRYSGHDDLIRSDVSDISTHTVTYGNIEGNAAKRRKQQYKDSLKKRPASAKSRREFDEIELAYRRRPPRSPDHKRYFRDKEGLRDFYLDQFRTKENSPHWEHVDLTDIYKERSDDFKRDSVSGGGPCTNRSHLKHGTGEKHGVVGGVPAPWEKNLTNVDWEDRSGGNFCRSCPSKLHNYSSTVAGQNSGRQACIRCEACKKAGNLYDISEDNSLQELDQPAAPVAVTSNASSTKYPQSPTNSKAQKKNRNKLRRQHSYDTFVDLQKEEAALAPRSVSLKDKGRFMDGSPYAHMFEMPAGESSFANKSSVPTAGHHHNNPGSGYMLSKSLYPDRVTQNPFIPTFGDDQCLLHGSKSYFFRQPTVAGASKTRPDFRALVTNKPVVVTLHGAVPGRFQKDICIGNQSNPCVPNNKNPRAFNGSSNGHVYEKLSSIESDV
Procedure: Missense mutations were introduced into rat cDNAs encoding GluN1-4a and GluN2B in the pGEM-HE vector using the QuikChange protocol (Stratagene) using the primers listed in Supplementary Table 2. These plasmids were then linearized with NotI and used as templates for cRNA synthesis (Ambion). A total mass of 5–10 ng cRNA at a 1:2 weight ratio of GluN1-4a and GluN2B transcripts was co-injected into defolliculated Xenopus laevis oocytes (EcoCyte Bioscience). The oocytes were incubated in Barth’s solution containing 88 mM NaCl, 2.4 mM NaHCO3, 1 mM KCl, 0.33 mM Ca(NO3)2, 0.41 mM CaCl2, 0.82 mM MgSO4, and 5 mM HEPES, at a final pH of 7.4, supplemented with 0.1 mg mL^−1 gentamicin sulfate, 1 μg mL^−1 streptomycin, and 1 U mL^−1 penicillin at 15–19 °C. TEVC current recordings were performed 2–4 days after injection using an extracellular recording solution containing 90 mM NaCl, 10 mM HEPES, 1 mM KCl, 0.5 mM BaCl2, and 0.01 mM EDTA at either pH 6.9 or pH 7.6[39]. Voltage clamp was achieved and current responses were recorded at a holding potential of –40 mV with a two-electrode voltage clamp amplifier (Warner) at room temperature (~23 °C). Currents were low-pass filtered at 10 Hz and digitized at 20 Hz by LabWindows/CVI (National Instruments). […]

[4] = biological target: T2, GluN1a–GluN2B ATD heterodimer (UniProt A0A1L8F5J9+Q00960, N348D/N350Q/N61Q); experiment: ITC, ligands titrated into isolated GluN1a–GluN2B ATD heterodimer; type: binding, Xenopus GluN1a, rat GluN2B
T2 construct: the ATD domains of Xenopus GluN1a and rat GluN2B; alkaline phosphatase secretion signal (N); 57 residue linker to the other ATD, with TEV protease sites (cleaved yes); made in house
T2 sequence (Q00960 31-394 N348D limits assumed, other chains not shown): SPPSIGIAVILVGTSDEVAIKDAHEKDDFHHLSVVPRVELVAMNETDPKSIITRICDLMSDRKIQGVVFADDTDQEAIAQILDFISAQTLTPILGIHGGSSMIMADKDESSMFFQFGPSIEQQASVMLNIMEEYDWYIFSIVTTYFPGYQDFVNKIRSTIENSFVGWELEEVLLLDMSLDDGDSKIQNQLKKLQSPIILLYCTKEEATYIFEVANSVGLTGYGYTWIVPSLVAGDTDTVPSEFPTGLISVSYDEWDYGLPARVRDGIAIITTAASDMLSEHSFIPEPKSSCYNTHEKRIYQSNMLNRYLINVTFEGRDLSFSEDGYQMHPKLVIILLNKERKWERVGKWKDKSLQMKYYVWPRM
Source text: In order to directly estimate binding affinities of these inhibitors for their binding site in the GluN1–GluN2B NMDA receptors, we performed ITC using the purified GluN1a–GluN2B ATD proteins titrated with ligands of various N-substituent lengths at pH 7.6 and pH 6.5 to mimic the extreme drop in pH that can occur at the ischemic core[1]–[4] (Fig. 2a, b; Supplementary Figures 2 and 3). Toward this end, we expressed the isolated […] GluN1a–GluN2B ATD heterodimer proteins in GnTI^− HEK293S cells. Here, for clarity we will call the GluN1 ATD with and without exon 5 GluN1b ATD and GluN1a ATD, respectively.
To efficiently express the ATD domains of Xenopus GluN1a and rat GluN2B, we used the alkaline phosphatase secretion signal and fused the two domains with a 57 residue linker as described elsewhere, with the following modifications: due to an intrinsic thrombin site in the GluN2B ATD, we engineering Tobacco Etch Virus (TEV) protease sites into this construct to remove the linker. In addition, three glycosylation sites were removed by mutating GluN1a Asn61 and Asn371 to Gln, and GluN2B Asn348 was mutated to Asp.
Cell cultures were maintained at 37 °C with 5% CO2 and grown to a density of 2.0–2.5 × 10^6 cells mL^−1, then infected with baculovirus. Sodium butyrate was added to the infected cells to a final concentration of 5 mM and culture medium containing secreted GluN1a–GluN2B ATD fusion protein was harvested 96 h after infection.
Cells were removed from the medium by centrifugation and the clarified medium was concentrated and exchanged three times to cold TBS (200 mM NaCl, 20 mM Tris, pH 8.0) using tangential flow filtration with a molecular weight cutoff of 30 kDa (Pall Corporation). […] The following day, glutathione in a 10:1 ratio, reduced:oxidized, was added to the dialyzed protein to a final concentration of 3 mM, along with EDTA, pH 8.0, to a final concentration of 1 mM. Based on the protein yield, a 1:100 ratio of TEV protease (mass:mass, TEV:ATD) was added to the ATD solution and the reaction was incubated for 4 h at 18 °C. Next, EndoF1 endoglycosidase at a 1:5 ratio (mass:mass, EndoF1:ATD) was added to the ATD/TEV mixture and dialyzed overnight at room temperature to 2 L TBS with 10% glycerol and 20 mM imidazole.
This sample was then dialyzed overnight at 4 °C to 2 L TBS with 20% glycerol. […]
After dialysis, the protein sample was diluted to 10–15 μM and dimethyl sulfoxide (DMSO) was added to a final concentration of 1.5% (v/v), in order to match that of the ligand solution. […] Dilution enthalpy was calculated from post-saturation injections and subtracted from total heats, and the data were fit using a single-site model with the program OriginLab 7.5.

[5] = biological target: T3, GluN1-4a(H134A)/GluN2B NMDA receptor (Rattus norvegicus, UniProt P35439+Q00960, H134A); experiment: TEVC concentration–response, GluN1-4a(H134A) mutant; type: cell-based; details: pH 7.6; BAPTA (Table 3)
T3 construct: compared to that observed for full-length receptors in TEVC recordings; expressed in transfected cells; host or cells: Xenopus laevis oocytes, cRNA injection
T3 sequence (Q00960 27-1482, other chains not shown): as the sequence (Q00960 27-1482, other chains not shown) above
Procedure: Missense mutations were introduced into rat cDNAs encoding GluN1-4a and GluN2B in the pGEM-HE vector using the QuikChange protocol (Stratagene) using the primers listed in Supplementary Table 2. These plasmids were then linearized with NotI and used as templates for cRNA synthesis (Ambion). A total mass of 5–10 ng cRNA at a 1:2 weight ratio of GluN1-4a and GluN2B transcripts was co-injected into defolliculated Xenopus laevis oocytes (EcoCyte Bioscience). […] Voltage clamp was achieved and current responses were recorded at a holding potential of –40 mV with a two-electrode voltage clamp amplifier (Warner) at room temperature (~23 °C). Currents were low-pass filtered at 10 Hz and digitized at 20 Hz by LabWindows/CVI (National Instruments). Maximal effective concentrations of glutamate and glycine (100 and 30 μM, respectively) were used in all recordings.

[6] = biological target: T4, GluN1-4a(Y109W)/GluN2B NMDA receptor (Rattus norvegicus, UniProt P35439+Q00960, Y109W); experiment: TEVC concentration–response, GluN1-4a(Y109W) mutant; type: cell-based; details: pH 7.6; BAPTA (Table 3)
T4 construct: compared to that observed for full-length receptors in TEVC recordings; expressed in transfected cells; host or cells: Xenopus laevis oocytes, cRNA injection
T4 sequence (Q00960 27-1482, other chains not shown): as above
Procedure: Missense mutations were introduced into rat cDNAs encoding GluN1-4a and GluN2B in the pGEM-HE vector using the QuikChange protocol (Stratagene) using the primers listed in Supplementary Table 2. These plasmids were then linearized with NotI and used as templates for cRNA synthesis (Ambion). A total mass of 5–10 ng cRNA at a 1:2 weight ratio of GluN1-4a and GluN2B transcripts was co-injected into defolliculated Xenopus laevis oocytes (EcoCyte Bioscience). The oocytes were incubated in Barth’s solution containing 88 mM NaCl, 2.4 mM NaHCO3, 1 mM KCl, 0.33 mM Ca(NO3)2, 0.41 mM CaCl2, 0.82 mM MgSO4, and 5 mM HEPES, at a final pH of 7.4, supplemented with 0.1 mg mL^−1 gentamicin sulfate, 1 μg mL^−1 streptomycin, and 1 U mL^−1 penicillin at 15–19 °C. TEVC current recordings were performed 2–4 days after injection using an extracellular recording solution containing 90 mM NaCl, 10 mM HEPES, 1 mM KCl, 0.5 mM BaCl2, and 0.01 mM EDTA at either pH 6.9 or pH 7.6[39]. Voltage clamp was achieved and current responses were recorded at a holding potential of –40 mV with a two-electrode voltage clamp amplifier (Warner) at room temperature (~23 °C). Currents were low-pass filtered at 10 Hz and digitized at 20 Hz by LabWindows/CVI (National Instruments). Maximal effective concentrations of glutamate and glycine (100 and 30 μM, respectively) were used in all recordings.

CC(C(O)c1ccc(O)cc1)N1CCC(Cc2ccccc2)CC1 (centres unmarked) [Ifenprodil, Ifenprodil hemitartrate]
Kd [1]: 255 ± 11 nM
n (ITC stoichiometry) [2]: 0.98 ± 0.01
nH ([3]; 1-4a/2B WT, pH7.6, BAPTA, ifenprodil): 0.8364 and 0.9502 and 1.0632 and 0.8875 and 0.8992 and 1.197 and 1.038
Ifenprodil DR, response at 0.01 ([3]; 1-4a/2B WT, pH7.6, BAPTA): 89.9 and 98.2 and 90 and 89 and 92.8 and 95.6 and 95.4
Ifenprodil DR, response at 0.01 ([3]; 1-4a/2B WT, pH7.6, BAPTA, mean): 92.9857
Ifenprodil DR, response at 0.03 ([3]; 1-4a/2B WT, pH7.6, BAPTA): 78.8 and 96.7 and 76.5 and 75.3 and 82 and 88.4 and 87
Ifenprodil DR, response at 0.03 ([3]; 1-4a/2B WT, pH7.6, BAPTA, mean): 83.5286
Ifenprodil DR, response at 0.1 ([3]; 1-4a/2B WT, pH7.6, BAPTA): 64.2 and 90.5 and 49.1 and 54.7 and 63.1 and 64.1 and 66.9
Ifenprodil DR, response at 0.1 ([3]; 1-4a/2B WT, pH7.6, BAPTA, mean): 64.6571
nH ([3]; 1-4a/2B WT, pH7.6, BAPTA, ifenprodil, mean): 0.9818
nH ([3]; Ifenprodil DR, 1-4a/2B WT, pH7.6, BAPTA, single oocyte recordings, row 'mean' = mean): 0.8875 and 0.8992 and 1.197 and 1.038 and 0.8364 and 0.9502 and 1.0632
nH ([3]; Ifenprodil DR, 1-4a/2B WT, pH7.6, BAPTA, single oocyte recordings, row 'mean' = mean, mean): 0.9818
% response ([3]; current at 1 μM ifenprodil, pH 7.6, BAPTA): 35%
nH ([3]; pH 7.6, BAPTA (Table 3)): 1.0
Kd ([4]; pH 6.5): 249 ± 16 nM
Kd ([4]; pH 7.6): 226 ± 15 nM
n (ITC stoichiometry) ([4]; pH 6.5): 0.97 ± 0.01
n (ITC stoichiometry) ([4]; pH 7.6): 1.0 ± 0.01
% response, current at maximal ifenprodil potentiation [5]: ND, 105%^f nH ND (9)
% response, current at maximal ifenprodil potentiation [6]: ND, 115%^f nH ND (9)

— publication PMC6338780, “Structural elements of a pH-sensitive inhibitor binding site in NMDA receptors” (Nature Communications, 2019)
